Measurements reported in ChEMBL document CHEMBL5346968, “Exploring Structural Determinants of Bias among D4 Subtype-Selective Dopamine Receptor Agonists” (J Med Chem, 2023).

Key:
[1] = target: T1, D(2) dopamine receptor (Homo sapiens, UniProt P14416); experiment: Displacement of [3H]-N-methylspiperone from human dopmaine D2L receptor expressed in CHO cell membrane assessed as inhibition constant by competition binding assay; type: cell membranes
[2] = target: T1, D(2) dopamine receptor; experiment: Displacement of [3H]-N-methylspiperone from human dopmaine D2S receptor expressed in CHO cell membrane assessed as inhibition constant by competition binding assay; type: cell membranes
[3] = target: D(3) dopamine receptor (Homo sapiens, UniProt P35462); experiment: Displacement of [3H]-N-methylspiperone from human dopmaine D3 receptor expressed in HEK293T cells assessed as inhibition constant by competition binding assay; type: cell-based
[4] = target: D(1A) dopamine receptor (Homo sapiens, UniProt P21728); experiment: Displacement of [3H]SCH23390 from human dopamine D1 receptor expressed in HEK293T cells assessed as inhibition constant by competition binding assay; type: cell-based
[5] = target: D(1B) dopamine receptor (Homo sapiens, UniProt P21918); experiment: Displacement of [3H]SCH23390 from human dopamine D5 receptor expressed in HEK293T cells assessed as inhibition constant by competition binding assay; type: cell-based
[6] = target: T2, Alpha-1A adrenergic receptor (Homo sapiens, UniProt P35348); experiment: Displacement of [3H]prazosin from adrenergic alpha 1A receptor (unknown origin) expressed in HEK293T cells assessed as inhibition constant by competition binding assay; type: cell-based
T2 sequence (P35348 whole entry): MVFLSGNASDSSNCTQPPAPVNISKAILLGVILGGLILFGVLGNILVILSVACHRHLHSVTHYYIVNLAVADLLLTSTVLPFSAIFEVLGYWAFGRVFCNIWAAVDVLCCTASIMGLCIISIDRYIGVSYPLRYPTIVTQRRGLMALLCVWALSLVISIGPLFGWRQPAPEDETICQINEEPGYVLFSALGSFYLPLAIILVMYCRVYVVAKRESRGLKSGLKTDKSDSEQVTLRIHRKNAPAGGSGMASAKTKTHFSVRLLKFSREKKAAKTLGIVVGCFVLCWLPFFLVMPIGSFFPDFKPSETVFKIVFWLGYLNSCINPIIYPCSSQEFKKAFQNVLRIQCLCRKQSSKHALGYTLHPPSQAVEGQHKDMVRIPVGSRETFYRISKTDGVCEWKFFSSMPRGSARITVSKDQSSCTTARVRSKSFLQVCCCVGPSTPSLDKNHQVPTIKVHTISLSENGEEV

[7] = target: T3, Alpha-2A adrenergic receptor (Homo sapiens, UniProt P08913); experiment: Displacement of [3H]RX821002 from adrenergic alpha 2A receptor (unknown origin) expressed in HEK293T cells assessed as inhibition constant by competition binding assay; type: cell-based
T3 sequence (P08913 whole entry): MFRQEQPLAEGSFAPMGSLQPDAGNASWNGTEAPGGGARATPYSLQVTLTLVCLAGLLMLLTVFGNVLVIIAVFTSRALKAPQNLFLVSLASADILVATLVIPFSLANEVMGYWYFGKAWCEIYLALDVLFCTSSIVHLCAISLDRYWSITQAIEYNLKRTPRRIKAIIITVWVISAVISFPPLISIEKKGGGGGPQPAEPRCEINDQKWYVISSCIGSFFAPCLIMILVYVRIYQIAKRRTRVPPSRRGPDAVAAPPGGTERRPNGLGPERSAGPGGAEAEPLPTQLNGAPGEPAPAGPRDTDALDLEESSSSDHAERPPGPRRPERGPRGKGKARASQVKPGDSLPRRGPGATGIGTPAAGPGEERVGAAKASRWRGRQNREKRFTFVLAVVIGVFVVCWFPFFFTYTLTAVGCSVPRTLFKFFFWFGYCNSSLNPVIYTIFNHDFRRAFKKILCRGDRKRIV

[8] = target: T4, 5-hydroxytryptamine receptor 1A (Homo sapiens, UniProt P08908); experiment: Displacement of [3H][…] from 5-HT1A receptor (unknown origin) expressed in HEK293T cells assessed as inhibition constant by competition binding assay; type: cell-based
T4 sequence (P08908 whole entry): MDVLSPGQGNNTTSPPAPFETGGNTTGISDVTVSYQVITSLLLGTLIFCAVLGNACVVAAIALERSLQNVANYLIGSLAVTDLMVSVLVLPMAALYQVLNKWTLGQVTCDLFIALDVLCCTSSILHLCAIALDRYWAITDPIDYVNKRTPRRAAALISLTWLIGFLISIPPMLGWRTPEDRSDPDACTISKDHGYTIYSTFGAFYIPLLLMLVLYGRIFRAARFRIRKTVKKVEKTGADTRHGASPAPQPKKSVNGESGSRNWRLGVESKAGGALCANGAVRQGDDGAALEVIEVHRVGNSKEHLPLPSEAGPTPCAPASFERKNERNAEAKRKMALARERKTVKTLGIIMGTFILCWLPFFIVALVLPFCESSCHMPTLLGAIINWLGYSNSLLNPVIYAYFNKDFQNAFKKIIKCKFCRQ

[9] = target: 5-hydroxytryptamine receptor 2A (Homo sapiens, UniProt P28223); experiment: Displacement of [3H]ketanserin from 5-HT2A receptor (unknown origin) expressed in HEK293T cells assessed as inhibition constant by competition binding assay; type: cell-based
[10] = Drug metabolism in pooled rat liver microsomes assessed as O-demethylation mediated metabolite formation at 40 uM measured upto 60 mins in the presence of NADPH by HPLC(UV) analysis; type: ADME, Microsome; settings: 1 h
[11] = Drug metabolism in pooled rat liver microsomes assessed as hydroxylation mediated metabolite formation at 40 uM measured upto 60 mins in the presence of NADPH by HPLC(UV) analysis; type: ADME, Microsome; settings: 1 h
[12] = Permeability of the compound across basal to apical membrane in human Caco-2 cells at 50 uM incubated for 4 hrs by HPLC(UV) analysis; type: ADME, cell-based; settings: caco-2, 4 h
[13] = Apparent permeability of the compound across basal to apical membrane in human Caco-2 cells at 50 uM incubated for 4 hrs by HPLC(UV) analysis; type: ADME, cell-based
[14] = Retention time of the compound by HPLC(UV) method; type: physicochemical
[15] = Permeability of the compound across basal to apical membrane in human Caco-2 cells at 5 uM incubated for 4 hrs by HPLC(UV) analysis; type: ADME, cell-based; settings: caco-2, 4 h
[16] = Permeability of the compound across basal to apical membrane in human Caco-2 cells at 5 uM incubated for 4 hrs in the presence of valspodar by HPLC(UV) analysis; type: ADME, cell-based; settings: caco-2, 4 h

T1 sequence (P14416 whole entry): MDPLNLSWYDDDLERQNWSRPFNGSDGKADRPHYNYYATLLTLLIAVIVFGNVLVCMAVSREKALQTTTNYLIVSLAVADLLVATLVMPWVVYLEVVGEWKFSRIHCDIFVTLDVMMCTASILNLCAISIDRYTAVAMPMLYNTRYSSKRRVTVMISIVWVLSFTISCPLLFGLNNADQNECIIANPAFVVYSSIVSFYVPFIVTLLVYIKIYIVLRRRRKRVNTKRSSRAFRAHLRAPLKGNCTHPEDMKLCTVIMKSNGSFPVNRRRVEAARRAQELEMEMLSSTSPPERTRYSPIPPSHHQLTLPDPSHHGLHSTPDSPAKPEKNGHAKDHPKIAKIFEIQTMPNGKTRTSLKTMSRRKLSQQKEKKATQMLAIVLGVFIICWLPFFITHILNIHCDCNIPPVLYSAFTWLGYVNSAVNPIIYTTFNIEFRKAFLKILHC
D(1A) dopamine receptor, sequence (P21728 whole entry): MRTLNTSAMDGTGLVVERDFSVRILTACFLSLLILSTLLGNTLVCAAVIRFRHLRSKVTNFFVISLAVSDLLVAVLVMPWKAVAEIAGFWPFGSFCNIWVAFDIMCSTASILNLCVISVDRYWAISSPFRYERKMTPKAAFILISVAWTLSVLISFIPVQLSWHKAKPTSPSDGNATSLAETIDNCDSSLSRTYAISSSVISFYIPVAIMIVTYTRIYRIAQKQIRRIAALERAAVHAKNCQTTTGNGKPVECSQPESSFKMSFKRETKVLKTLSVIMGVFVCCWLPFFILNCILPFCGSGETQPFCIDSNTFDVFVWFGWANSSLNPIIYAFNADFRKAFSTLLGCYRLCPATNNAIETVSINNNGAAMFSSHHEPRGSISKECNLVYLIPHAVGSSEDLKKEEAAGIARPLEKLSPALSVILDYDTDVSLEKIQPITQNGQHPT
5-hydroxytryptamine receptor 2A, sequence (P28223 whole entry): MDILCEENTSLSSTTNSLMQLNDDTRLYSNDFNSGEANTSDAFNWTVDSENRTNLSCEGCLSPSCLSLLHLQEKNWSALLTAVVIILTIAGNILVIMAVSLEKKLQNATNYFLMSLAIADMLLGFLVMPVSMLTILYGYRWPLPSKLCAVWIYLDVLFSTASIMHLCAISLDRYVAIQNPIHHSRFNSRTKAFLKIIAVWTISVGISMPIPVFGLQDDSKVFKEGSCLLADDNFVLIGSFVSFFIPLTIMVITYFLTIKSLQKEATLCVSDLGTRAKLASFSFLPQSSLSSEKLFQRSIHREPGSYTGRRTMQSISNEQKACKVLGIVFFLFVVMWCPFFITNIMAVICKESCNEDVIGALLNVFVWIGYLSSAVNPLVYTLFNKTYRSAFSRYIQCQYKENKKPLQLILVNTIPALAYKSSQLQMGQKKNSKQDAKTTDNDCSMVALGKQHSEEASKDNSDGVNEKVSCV
D(3) dopamine receptor, sequence (P35462 whole entry): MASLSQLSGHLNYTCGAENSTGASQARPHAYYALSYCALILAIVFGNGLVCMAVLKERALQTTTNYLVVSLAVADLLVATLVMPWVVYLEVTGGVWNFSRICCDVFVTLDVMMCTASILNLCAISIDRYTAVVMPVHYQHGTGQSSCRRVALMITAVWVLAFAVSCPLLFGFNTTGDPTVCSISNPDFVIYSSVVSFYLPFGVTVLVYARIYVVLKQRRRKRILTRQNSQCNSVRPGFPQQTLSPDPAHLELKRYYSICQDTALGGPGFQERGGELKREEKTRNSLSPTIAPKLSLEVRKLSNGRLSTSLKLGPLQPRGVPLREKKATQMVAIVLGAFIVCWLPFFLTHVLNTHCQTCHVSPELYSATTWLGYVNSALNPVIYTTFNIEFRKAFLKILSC
D(1B) dopamine receptor, sequence (P21918 whole entry): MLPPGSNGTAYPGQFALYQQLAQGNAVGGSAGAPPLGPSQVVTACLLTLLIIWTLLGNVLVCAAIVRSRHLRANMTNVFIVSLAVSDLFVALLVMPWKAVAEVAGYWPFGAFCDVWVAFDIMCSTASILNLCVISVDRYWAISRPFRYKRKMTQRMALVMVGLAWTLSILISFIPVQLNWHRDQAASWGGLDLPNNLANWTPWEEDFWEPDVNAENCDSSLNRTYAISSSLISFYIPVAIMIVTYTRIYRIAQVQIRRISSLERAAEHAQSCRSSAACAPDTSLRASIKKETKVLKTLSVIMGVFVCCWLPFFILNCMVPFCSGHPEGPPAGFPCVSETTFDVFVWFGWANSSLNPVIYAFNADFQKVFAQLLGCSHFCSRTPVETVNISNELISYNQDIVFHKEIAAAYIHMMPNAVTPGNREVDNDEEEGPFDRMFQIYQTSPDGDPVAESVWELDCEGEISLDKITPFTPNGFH

COc1ccccc1N1CCN(CCCNC(=O)Nc2ccccc2-c2ccc(-c3ccccc3)cc2)CC1
Ki [1]: 52 nM | Ki [2]: 36 nM | Ki [3]: 44 nM | Ki [4]: 16 nM | Ki [5]: 350 nM | Ki [6]: 8.2 nM | Ki [7]: 150 nM | Ki [8]: 100 nM | Ki [9]: 160 nM | Drug metabolism [10]: Metabolite_Detected | Drug metabolism [11]: Metabolite_Detected | permeability [12]: Impermeable | Papp B→A at 4 h, 50 µM [13]: > 1 ×10⁻⁶ cm/s | Retention_time [14]: 4.37 min

C[C@H]1O[C@@H](O[C@H]2[C@@H](O)C[C@H](O[C@H]3[C@@H](O)C[C@H](O[C@H]4CC[C@@]5(C)[C@H](CC[C@@H]6[C@@H]5C[C@@H](O)[C@]5(C)[C@@H](C7=CC(=O)OC7)CC[C@]65O)C4)O[C@@H]3C)O[C@@H]2C)C[C@H](O)[C@@H]1O [DIGOXIN]
permeability [15]: 22.9% | permeability [16]: 12.1%
